US20090092631A1, “GLYCOSYLATED SPECIFICITY EXCHANGERS THAT INDUCE AN ANTIBODY DEPENDENT CELLULAR CYTOTOXICITY (ADCC) RESPONSE” (priority 2007, published 2009)
Ends that are not written are not given here.

Experiments:
HIV-1 IIIB = assay: Neutralization assay (plaque-forming units/syncytia) in U87 cells expressing CD4 and co-receptor; format: cell-based
Experimental: Once it had been determined that the glycosylated specificity exchangers appreciably bound gp120 and human antibody, the antiviral activity of the glycosylated specificity exchangers was evaluated using a neutralization assay that is recognized in the art to reasonably predict the therapeutic efficacy of an HIV vaccine. (See Y. Shi et al., “A new cell line-based neutralization assay for primary HIV type 1 isolates,” AIDS Res Hum Retroviruses 18:957-967 (2002), herein expressly incorporated by reference in its entirety). By this approach, HIV infection of U87 cells that express CD4 and one of the major co-receptors (either CXCR4 or CCR5) were challenged with the glycosylated specificity exchangers and human serum during competition with the CD4 receptor. The infected cells form syncytia, that is, plaques, that were stained and enumerated by light microscopy. Neutralization was then determined by the ability of human serum and glycosylated specificity exchanger to reduce the number of plaque-forming units (PFU) relative to controls.
In brief, the U87 cells were seeded onto a 48 well plate at a concentration of 100,000 cell/well 1 day prior infection with HIV-1 IIIB. On the day of infection, glycosylated specificity exchangers (Seq. ID. Nos. 4-9), human serum and virus stock were diluted in culture medium and incubated in a separate 48 well plate, to a final dilution of 1:10/1:20 for the serum and an appropriate concentration of the virus, according to the titration. The glycosylated specificity exchangers were analyzed at different concentrations to determine the minimal amount required for antiviral activity. The glycosylated specificity exchanger-serum-virus mixture was kept at 37° C. for 1 hr. Then, two hundred microliters of each dilution was distributed into wells containing the U87/CD4 cells. The experiment was performed in quadruplicate in the same plate and in five separate plates.
Controls for the assay included glycosylated specificity exchanger without the coupled sugar, the glycosylated specificity exchanger (coupled with the sugar) and a 1:10/1:20 dilution of heat inactivated human serum, cells and medium only, and cells and medium and serum. […]

HIV IIIB virus [1] = assay: Syncytia inhibition (plaque) assay on U87 CD4+-CXCR4+ cells; format: cell-based, HIV-1; settings: for neutralization values (ranking): non-inactivated human sera (FIGS. 12H and 12I); for neutralization (comparison among glycopeptides): plaque assay U87, single round TZMbl and H9 infectivity assays, HIV IIIB, inactivated human serum
Experimental: The CD4 glycopeptides were studied for inhibition of cell to cell interactions in a plaque assay system using U87 cells (FIG. 7), in a single round infectivity assay with TZMbl cells (FIG. 7) and in an infectivity assay with H9 cells, wherein multiple rounds of replication were allowed (FIG. 8). Infectivity was performed with the HIV IIIB virus and inactivated human serum from healthy individuals was used as the source of the anti-gal antibody.
Neutralization was tested based on the prevention of syncytia formation by HIV-1 infection of adherent U87 glioma cells expressing the CD4 receptor and the CXCR4 co-receptor, previously described by Shi Y, et al., (2002) A new cell line-based neutralization assay for primary HIV type 1 isolates. AIDS Res Hum Retroviruses 18:957-967, herein expressly incorporated by reference in its entirety.
Cells were seeded into 48 well plates (Costar, Corning USA) at a concentration of 10^5 cell/well one day prior to infection. On the day of infection, glycopeptides, pooled AB type human serum from healthy individuals (Cambrex, USA) and previously titrated HIV IIIB virus were diluted in culture medium and pre-incubated in a separate 48 well plate for 1 h at 37° C. The peptides were analyzed at different concentrations to evaluate the minimum dose required for antiviral activity. Two hundred microliters of each dilution were distributed into triplicate wells containing the U87 CD4^+-CXCR4^+ cells and incubated for 12 h after which medium was removed and 1 ml of D-MEM medium was added to the cells. The positive controls were infected cells in the presence or absence of human serum and negative controls consisted of uninfected cells in the presence or absence of human serum and an irrelevant glycosylated peptide. At day five the cells were fixated with methanol-acetone (1:1). The number of plaque-forming units was determined after haematoxylin staining and the index was extracted from the ratio between infected cells treated with the peptides and human serum and cells infected with the virus in the presence of human serum. Each peptide was tested at four different concentrations, in quadruplicates in the same plate and in five different plates, i.e. each peptide was run in twenty wells at each concentration.

HIV IIIB virus [2] = assay: Multiple round infectivity assay in H9 cells (RT activity, day 11); format: cell-based, HIV-1; settings: 1 μg/ml glycopeptide, 5 or 10% human serum
Experimental: An infectivity assay was performed on H9 cells that were infected with HIV IIIB virus. All peptides were run at four different dilutions and each dilution was run in quadruplicates together with a 10% or 5% of pooled AB human serum from healthy individuals. (Cambrex, USA).
H9 cells were infected with 100 TCID50 of the HIV IIIB virus and incubated for 1.5 h at 37° C. after which they were centrifuged, the supernatant was discarded and the cells were re-suspended in RPMI medium for a final concentration of 200,000 cells/ml.
One 48 well plate was run per glycopeptide, containing the four dilutions of the glycopeptide and the four replicates of each one of them, plus a positive control of infected cells (with and without human serum) and a negative control of non-infected H9 cells. Each well contained 500 μl of the infected cells +500 μl of the diluted peptide and the chosen dilution of the human serum.
Plates were incubated at 37° C.+5% CO2 until day 7 when 500 μl of supernatant were collected from each well and stored at −20 degrees until further analysis. An additional 500 μl of fresh RPMI medium with the appropriate dilution of the peptide plus the human serum were added to the wells and incubated at 37 degrees until day 11 when the supernatant was measured for Reverse Transcriptase (RT) activity (Cavidi, Sweden) according to the manufacturer's protocol.

[3] = CD4 peptide Alone (without coupled sugar), 0.1 ug/ml, 0.3 equals 30% inhibition
[4] = CD4 peptide Alone (without coupled sugar), 1 ug/ml, 0.3 equals 30% inhibition
[5] = CD4 peptide Alone (without coupled sugar), 10 ug/ml, 0.3 equals 30% inhibition of HIV replication (syncytia formation)
[6] = Glycosylated Sp. Exchanger & 1:10 dilution human serum, 0.1 ug/ml, 0.3 equals 30% inhibition
[7] = Glycosylated Sp. Exchanger & 1:10 dilution human serum, 1 ug/ml, 0.3 equals 30% inhibition
[8] = Glycosylated Sp. Exchanger & 1:10 dilution human serum, 10 ug/ml, 0.3 equals 30% inhibition
[9] = Glycosylated Sp. Exchanger & 1:20 dilution human serum, 0.1 ug/ml, 0.3 equals 30% inhibition
[10] = Glycosylated Sp. Exchanger & 1:20 dilution human serum, 1 ug/ml, 0.3 equals 30% inhibition
[11] = Glycosylated Sp. Exchanger & 1:20 dilution human serum, 10 ug/ml, 0.3 equals 30% inhibition
[12] = Glycosylated Sp. Exchanger, 0.1 ug/ml, 0.3 equals 30% inhibition
[13] = Glycosylated Sp. Exchanger, 1 ug/ml, 0.3 equals 30% inhibition
[14] = Glycosylated Sp. Exchanger, 10 ug/ml, 0.3 equals 30% inhibition

Row | Substance | neutralization of the virus (HIV-1 IIIB; [3]) | neutralization of the virus (HIV-1 IIIB; [4]) | neutralization of the virus (HIV-1 IIIB; [5]) | neutralization of the virus (HIV-1 IIIB; [6]) | neutralization of the virus (HIV-1 IIIB; [7]) | neutralization of the virus (HIV-1 IIIB; [8]) | neutralization of the virus (HIV-1 IIIB; [9]) | neutralization of the virus (HIV-1 IIIB; [10]) | neutralization of the virus (HIV-1 IIIB; [11]) | neutralization of the virus (HIV-1 IIIB; [12]) | neutralization of the virus (HIV-1 IIIB; [13]) | neutralization of the virus (HIV-1 IIIB; [14]) | neutralization of the virus (HIV-1 IIIB; Glycosylated Sp. Exchanger & 1:10 dilution human serum, 100 ug/ml, 0.3 equals 30% inhibition) | neutralization of the virus (HIV-1 IIIB; Glycosylated Sp. Exchanger & 1:20 dilution human serum, 100 ug/ml, 0.3 equals 30% inhibition) | neutralization of the virus (HIV-1 IIIB; Glycosylated Sp. Exchanger, 100 ug/ml, 0.3 equals 30% inhibition) | neutralization values (ranking) (HIV IIIB virus [1]) | neutralization (comparison among glycopeptides) (HIV IIIB virus [1]) | neutralization (HIV IIIB virus [2])
1 | 7 (QGSFLTKGPSKLNDR; Homo sapien) [compound 7] | neg (Neg = negative <0.30) | neg (Neg = negative <0.30) | neg (Neg = negative <0.30) | 0.439 | 0.461 | 0.454 | neg (Neg = negative <0.30) | neg (Neg = negative <0.30) | neg (Neg = negative <0.30) | neg (Neg = negative <0.30) | neg (Neg = negative <0.30) | neg (Neg = negative <0.30) |  |  |  |  |  | 
2 | 9 (KLNDRADSRRSLWDQ; Homo sapien) [compound 9] |  |  |  | 0.76 | 0.75 | 0.78 | 0.71 | 0.75 | 0.74 | neg (Neg = negative <0.30) | neg (Neg = negative <0.30) | neg (Neg = negative <0.30) | 0.75 | 0.734 | neg (Neg = negative <0.30) |  |  | 
3 | KILGNQGSFLTKGPS ({Gal‑α1‑3Gal‑β glyco‑aspartic acid}-KILGNQGSFLTKGPS) [Seq. Id. No. 6, CD4 receptor peptide with Gal-α1-3Gal-β glyco-aspartic acid linked to its N-terminal end] |  |  |  |  |  |  |  |  |  |  |  |  |  |  |  | Highest neutralization values | greater neutralization | 90%
4 | 6 (KILGNQGSFLTKGPS; Homo sapien) [compound 6] | neg (Neg = negative <0.30) | neg (Neg = negative <0.30) | neg (Neg = negative <0.30) | 0.50 | 0.42 | 0.60 | neg (Neg = negative <0.30) | neg (Neg = negative <0.30) | neg (Neg = negative <0.30) | neg (Neg = negative <0.30) |  |  |  |  |  |  |  | 
5 | 8 (TKGPSKLNDRADSRR; Homo sapien) [compound 8] |  |  |  | 0.778 | 0.821 | 0.83 | 0.701 | 0.667 | 0.642 |  | 0.548 | 0.552 |  |  |  |  |  | 
6 | TKGPSKLNDRADSRR ({Gal‑α1‑3Gal‑β glyco‑aspartic acid}-TKGPSKLNDRADSRR) [Seq. Id. No. 8, CD4 receptor peptide with Gal-α1-3Gal-β glyco-aspartic acid linked to its N-terminal end] | neg (Neg = negative <0.30) | neg (Neg = negative <0.30) | neg (Neg = negative <0.30) | neg (Neg = negative <0.30) | 0.39 | 0.49 | neg (Neg = negative <0.30) | 0.32 | 0.429 | neg (Neg = negative <0.30) | neg (Neg = negative <0.30) | neg (Neg = negative <0.30) |  |  |  | Highest neutralization values | greater neutralization | 90%
7 | QGSFLTKGPSKLNDR ({Gal‑α1‑3Gal‑β glyco‑aspartic acid}-QGSFLTKGPSKLNDR) [Seq. Id. No. 7, CD4 receptor peptide with Gal-α1-3Gal-β glyco-aspartic acid linked to its N-terminal end] | neg (Neg = negative <0.30) | neg (Neg = negative <0.30) | neg (Neg = negative <0.30) | 0.48 | 0.48 | 0.55 | 0.47 | 0.47 | 0.48 | neg (Neg = negative <0.30) | neg (Neg = negative <0.30) | neg (Neg = negative <0.30) |  |  |  | Highest neutralization values | greater neutralization | 90%
